Results on 6 molecules are retold here after US20220213099A1, “PRODRUG COMPOUNDS” (BRISTOL-MYERS SQUIBB COMPANY, priority 2019, published 2022).

A short description of data set [1]: Solubility evaluation in aqueous buffer. It counts as physicochemical. Conditions: thermodynamic from solid, about 24 hours equilibration. How it is done: The solid powder of an individual prodrug was equilibrated in aqueous buffers of pH 1, 4 and 6.5 at 25° C. for about 24 hours. After equilibration, the excess solid was separated by filtration using 0.45 μm membrane filter and the filtrate was collected in suitable glass vial. The filtrate was diluted appropriately using respective buffers/diluent and analyzed by a reversed phase LC method with UV detection.

The nature of data set [2]: Stability evaluation in aqueous buffer. It counts as physicochemical. Conditions: aqueous buffer, 37° C., about 50 μg/mL, about 15% v/v acetonitrile. The protocol: The stability study of an individual prodrug was conducted with about 50 μg/mL solutions in aqueous buffers of pH 1 (0.1 M HCl), 4 (acetate buffer) and 6.5 (phosphate buffer) at 37° C. for 24 hours. About 15% v/v acetonitrile was used in these pH buffers as a co-solvent to obtain clear solutions of prodrugs. The sample analysis was carried out using a generic reversed phase liquid chromatographic (LC) method with UV detection. The area percent (AP) loss of the prodrug peak was quantified as a function of time. The appearance of parent peak was identified from the chromatographic retention time. The half-life (t1/2, h) of the prodrug was calculated by using a pseudo-first order equation from a AP loss vs time plot.

Data set [3] deals with rat rIALP. The experiment in a line: Recombinant intestinal alkaline phosphatase (rIALP) assay, rat. It counts as in vitro ADME. To be noted: 100 mM Tris-HCl buffer pH 7.4, 37° C., 120 minutes incubation, read-out: t1/2 in rat rIALP. The protocol: (§1) Examples 8 and 9 were evaluated in this assay. To assess the potential for generation of parent drug from the phosphate prodrugs, 100 μL of rIALP was dissolved in 100 mM Tris-HCl buffer (pH 7.4) and it was added to 100 μL of freshly prepared prodrug solution (10 mM) prepared in the same buffer. Incubations were performed in triplicate using 96-well plates (Waters, Milford, Mass.) at 37° C. in a shaking water bath (Julabo, Allentown, Pa.). The prodrug and enzyme solution were pre-warmed at 37° C. before the reaction was initiated by addition of substrate. The incubation was performed for 120 minutes with […] taken at 0, 5, 10, 15, 30, 60, 90, and 120 minutes. The assays were terminated at designated time points by the addition of 200 μL of ice-cold acetonitrile containing internal standard followed by centrifugation at 4000 g for 4 minutes. The supernatant was transferred to a new 96-well plate for analysis by ultra-performance liquid chromatography combined with tandem mass spectrometry (UPLC-MS/MS). The t1/2 value for each prodrug/protein combination was determined from the natural logarithm of percent remaining versus time plots.

For data set [4], the target named is T1, human rIALP (Homo sapiens, UniProt P09923).
T1 sequence (P09923 20-503 limits assumed): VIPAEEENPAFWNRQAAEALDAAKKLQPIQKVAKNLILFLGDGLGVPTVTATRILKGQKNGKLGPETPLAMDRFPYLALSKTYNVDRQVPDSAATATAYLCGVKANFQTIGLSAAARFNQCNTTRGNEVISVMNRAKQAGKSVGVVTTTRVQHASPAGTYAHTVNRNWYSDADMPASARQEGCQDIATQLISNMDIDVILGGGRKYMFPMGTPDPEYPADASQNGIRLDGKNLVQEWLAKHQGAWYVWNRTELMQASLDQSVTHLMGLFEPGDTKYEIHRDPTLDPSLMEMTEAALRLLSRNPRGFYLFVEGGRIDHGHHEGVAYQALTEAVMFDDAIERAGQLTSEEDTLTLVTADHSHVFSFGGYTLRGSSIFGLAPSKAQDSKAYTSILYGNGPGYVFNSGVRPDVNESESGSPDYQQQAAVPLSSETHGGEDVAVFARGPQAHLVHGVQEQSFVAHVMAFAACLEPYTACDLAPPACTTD
The experiment in a line: Recombinant intestinal alkaline phosphatase (rIALP) assay, human. Conditions: 100 mM Tris-HCl buffer pH 7.4, 37° C., 120 minutes incubation, read-out: t1/2 in human rIALP. It counts as in vitro ADME. How it is done: as §1

[5] abbreviates: aqueous buffer, 25 °C, pH 1, simulated gastric fluid, aqueous buffer pH 1, 25° C., read-out: Solubility (mg/mL) at 25° C. pH 1.
[6] abbreviates: aqueous buffer, 25 °C, pH 4, aqueous buffer, aqueous buffer pH 4, 25° C., read-out: Solubility (mg/mL) at 25° C. pH 4.
The mark [7] stands for this setting: aqueous buffer, 25 °C, pH 6.5, aqueous buffer, aqueous buffer pH 6.5, 25° C., read-out: Solubility (mg/mL) at 25° C. pH 6.5.
Setting [8] is: pH 1, pH 1 (0.1 M HCl), read-out: Stability (t1/2, h) at 37° C. pH 1 (converted).
The mark [9] stands for this setting: pH 4, pH 4 (acetate buffer), read-out: Stability (t1/2, h) at 37° C. pH 4 (converted).
[10] abbreviates: pH 6.5, pH 6.5 (phosphate buffer), read-out: Stability (t1/2, h) at 37° C. pH 6.5 (converted).

Values after ≈ are worked out from the molar mass of the structure shown. Where a name gives a salt, the structure may show the parent alone. Read-outs that look alike come from different tables or passages of the source. Where only a bound is given, the exact number is not on record here.

As for `Cc1c(-c2[nH]c3ccc(C4CC[N+](COP(=O)(O)O)(CC(N)=O)CC4)cc3c2C(C)C)cn2ncnc2c1C` (single isomer, unassigned) [Example 9, 1-(2-Amino-2-oxoethyl)-4-(2-(7,8-dimethyl-[1,2,4]triazolo[1,5-a]pyridin-6-yl)-3-isopropyl-1H-indol-5-yl)-1-((phosphonooxy)methyl)piperidin-1-ium trifluoroacetate], the solubility is more than 1.14 mg/mL in data set [1] (setting [5]), 0.85 mg/mL in data set [1] (setting [6]) and 1.34 mg/mL in data set [1] (setting [7]). Besides, the half-life in data set [2] (setting [8]), in data set [2] (setting [9]) and in data set [2] (setting [10]) was more than 500 h each time. In addition, the half-life at 5 mM in data set [3] and in data set [4] was less than 5 min throughout.
For `Cc1c(-c2[nH]c3ccc(C4CCN(CC(N)=O)CC4)cc3c2C(C)C)cn2nc[n+](COP(=O)(O)O)c2c1C` (single isomer, unassigned) [Example 8, 6-(5-(1-(2-Amino-2-oxoethyl)piperidin-4-yl)-3-isopropyl-1H-indol-2-yl)-7,8-dimethyl-1-((phosphonooxy)methyl)-[1,2,4]triazolo[1,5-a]pyridin-1-ium trifluoroacetate], the solubility in data set [1] (setting [5]) is more than 0.86 mg/mL; in data set [1] (setting [6]), 0.03 mg/mL; in data set [1] (setting [7]) it was 0.86 mg/mL. For the same molecule, the half-life in data set [2] (setting [8]), in data set [2] (setting [9]) and in data set [2] (setting [10]) was more than 500 h in each case. The values for the half-life at 5 mM in data set [3] and in data set [4] were less than 5 min and less than 10 min, respectively.
In the case of `COc1cc(C(=O)OCOC(=O)n2c(-c3cn4ncnc4c(C)c3C)c(C(C)C)c3cc(C4CCN(CC(N)=O)CC4)ccc32)ccc1OP(=O)(O)O` [Example 22, ((3-Methoxy-4-(phosphonooxy)benzoyl)oxy)methyl 5-(1-(2-amino-2-oxoethyl)piperidin-4-yl)-2-(7,8-dimethyl-[1,2,4]triazolo[1,5-a]pyridin-6-yl)-3-isopropyl-1H-indole-1-carboxylate], the solubility in data set [1] (simulated gastric fluid, aqueous buffer pH 1, 25° C., read-out: Solubility (mg/mL) at 25° C. pH 1) was more than 1.02 mg/mL; in data set [1] (aqueous buffer pH 4, 25° C., read-out: Solubility (mg/mL) at 25° C. pH 4), 0.02 mg/mL (≈ 26.7 µM); in data set [1] (aqueous buffer pH 6.5, 25° C., read-out: Solubility (mg/mL) at 25° C. pH 6.5), 0.02 mg/mL (≈ 26.7 µM). The half-life is 400 h in data set [2] (pH 1 (0.1 M HCl), read-out: Stability (t1/2, h) at 37° C. pH 1 (converted)); more than 500 h in data set [2] (pH 4 (acetate buffer), read-out: Stability (t1/2, h) at 37° C. pH 4 (converted)); more than 500 h in data set [2] (pH 6.5 (phosphate buffer), read-out: Stability (t1/2, h) at 37° C. pH 6.5 (converted)).
On to `Cc1c(-c2c(C(C)C)c3cc(C4CCN(CC(N)=O)CC4)ccc3n2C(=O)OC[C@@H]2CCCN2)cn2ncnc2c1C` [Example 3, (S)-Pyrrolidin-2-ylmethyl 5-(1-(2-amino-2-oxoethyl)piperidin-4-yl)-2-(7,8-dimethyl-[1,2,4]triazolo[1,5-a]pyridin-6-yl)-3-isopropyl-1H-indole-1-carboxylate], for which the solubility in data set [1] (setting [5]) is more than 2.43 mg/mL; in data set [1] (setting [6]), more than 2.68 mg/mL; in data set [1] (setting [7]), more than 2.44 mg/mL. Moreover, the half-life was more than 500 h in data set [2] (setting [8]), more than 500 h in data set [2] (setting [9]) and 99 h in data set [2] (setting [10]).
Consider `Cc1c(-c2c(C(C)C)c3cc(C4CCN(CC(N)=O)CC4)ccc3n2SC[C@H](N)C(=O)O)cn2ncnc2c1C` [Example 11, S-(5-(1-(2-Amino-2-oxoethyl)piperidin-4-yl)-2-(7,8-dimethyl-[1,2,4]triazolo[1,5-a]pyridin-6-yl)-3-isopropyl-1H-indol-1-yl)-L-cysteine], for which the solubility was more than 1.03 mg/mL in data set [1] (setting [5]), 0.007 mg/mL (≈ 12.4 µM) in data set [1] (setting [6]) and more than 1.02 mg/mL in data set [1] (setting [7]). Further, the figures for the half-life in data set [2] (setting [8]), in data set [2] (setting [9]) and in data set [2] (setting [10]) were more than 500 h, more than 500 h and 154 h, respectively.
As for `Cc1c(-c2c(C(C)C)c3cc(C4CCN(CC(N)=O)CC4)ccc3n2CO)cn2ncnc2c1C` [Example 25, 2-(4-(2-(7,8-Dimethyl-[1,2,4]triazolo[1,5-a]pyridin-6-yl)-1-(hydroxymethyl)-3-isopropyl-1H-indol-5-yl)piperidin-1-yl)acetamide], the solubility in data set [1] (setting [5]) was more than 1.41 mg/mL; in data set [1] (setting [6]) it was 1.28 mg/mL (≈ 2700 µM); in data set [1] (setting [7]) it was 0.01 mg/mL (≈ 21.1 µM). In addition, the half-life in data set [2] (setting [8]) is 179 h; in data set [2] (setting [9]) it was more than 500 h; in data set [2] (setting [10]), more than 500 h.
